Measured values from patent US7462600B2, “Macrolides” (Pfizer Inc, priority 2004, dated 2008).
Converted amounts (≈) assume the structure as drawn. Read-outs that look alike come from different tables or passages of the source.

Legend:
Assay type in all cases: cell-based
[1] = system: Streptococcus pyogenes 1079; assay: MIC, microtiter broth dilution (NCCLS M100-S14), S. pyogenes 1079 (ermB)
Procedure, shortened: (§1)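 Microtiter broth dilution; interpretation per NCCLS M100-S14; endpoint = MIC. Stock: 40 mg/ml in DMSO.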

[2] = system: Streptococcus pneumoniae 1016; assay: MIC, microtiter broth dilution (NCCLS M100-S14), S. pneumoniae 1016 (susceptible)
Procedure, shortened: as §1

[3] = system: Streptococcus pneumoniae 1095; settings: microtiter broth dilution
Procedure, shortened: as §1

[4] = system: Streptococcus pneumoniae 1175; settings: microtiter broth dilution
Procedure, shortened: as §1

[5] = system: Haemophilus influenzae 1218; assay: MIC, microtiter broth dilution (NCCLS M100-S14), H. influenzae 1218 (susceptible)
Procedure, shortened: as §1

[6] = S. pneumoniae 1016 (susceptible)
[7] = H. influenzae 1218 (susceptible)

SMILES | MIC S. pyogenes 1079 ([1]; S. pyogenes 1079 (ermB)) | MIC S. pneumo. 1016 [2, 6] | MIC S. pneumo. 1095 ([3]; S. pneumoniae 1095 (ermB)) | MIC S. pneumo. 1175 ([4]; S. pneumoniae 1175 (mefA)) | MIC H. influenzae 1218 [5, 7] | MIC S. pyogenes 1079 ([1]; Streptococcus pyogenes 1079) | MIC S. pneumo. 1016 ([2]; Streptococcus pneumoniae 1016) | MIC S. pneumo. 1095 ([3]; Streptococcus pneumoniae 1095) | MIC S. pneumo. 1175 ([4]; Streptococcus pneumoniae 1175) | MIC H. influenzae 1218 ([5]; Haemophilus influenzae 1218)
CCC1OC(=O)C(C)C(=O)C(C)C(OC2OC(C)CC(N(C)C)C2O)C(C)(OC)CC(C)C(=O)C(C)C2N(CC3C4CN(C(=O)c5cccnc5)CC43)C(=O)OC12C (centres unmarked) [16.02] | >100.00 µg/mL | 0.02 µg/mL (≈ 0.0246 µM) | 3.12 µg/mL (≈ 3.84 µM) | 0.78 µg/mL (≈ 0.959 µM) | 0.78 µg/mL (≈ 0.959 µM) |  |  |  |  | 
CCC1OC(=O)C(C)C(=O)C(C)C(OC2OC(C)CC(N(C)C)C2O)C(C)(OC)CC(C)C(=O)C(C)C2N(CC3CCN(Cc4ccnc5ccccc45)CC3)C(=O)OC12C (centres unmarked) [15.02] | >64.00 µg/mL | <0.06 µg/mL | >64.00 µg/mL | 0.5 µg/mL (≈ 0.587 µM) | 32 µg/mL (≈ 37.6 µM) |  |  |  |  | 
CCC1OC(=O)C(C)C(=O)C(C)C(OC2OC(C)CC(N(C)C)C2O)C(C)(OC)CC(C)C(=O)C(C)C2N(C3CN(Cc4c(OC)cnc5cccnc45)C3)C(=O)OC12C (centres unmarked) [Example 1.101, 3-descladinosyl-11,12-dideoxy-6-O-methyl-3-oxo-12,11-(oxycarbonyl-(1-(3-methoxy-1,5-naphthyridine-4-methyl)-azetidin-3-yl)-imino)-erythromycin A] |  |  |  |  |  | 0.25 µg/mL (≈ 0.298 µM) | <0.063 µg/mL | 0.125 µg/mL (≈ 0.149 µM) | <0.063 µg/mL | 2 µg/mL (≈ 2.38 µM)
CC[C@H]1OC(=O)[C@H](C)C(=O)[C@H](C)[C@@H](O[C@@H]2O[C@H](C)C[C@H](N(C)C)[C@H]2O)[C@](C)(OC)C[C@@H](C)C(=O)[C@H](C)[C@H]2N(CC3(O)CN(Cc4ccc(-c5ncccn5)cc4)C3)C(=O)O[C@]12C [7.10] | >64.00 µg/mL | <0.06 µg/mL | 64 µg/mL (≈ 73.9 µM) | 1 µg/mL (≈ 1.15 µM) | 2 µg/mL (≈ 2.31 µM) |  |  |  |  | 
CCC1OC(=O)C(C)C(=O)C(C)C(OC2OC(C)CC(N(C)C)C2O)C(C)(OC)CC(C)C(=O)C(C)C2N(CC3CCCN3C(=O)c3ccc4cnccc4n3)C(=O)OC12C (centres unmarked) [10.49] | >64.00 µg/mL | <0.06 µg/mL | 2 µg/mL (≈ 2.35 µM) | 2 µg/mL (≈ 2.35 µM) | 8 µg/mL (≈ 9.39 µM) |  |  |  |  | 
CCC1OC(=O)C(C)C(=O)C(C)C(OC2OC(C)CC(N(C)C)C2O)C(C)(OC)CC(C)C(=O)C(C)C2N(CC3CCCN3C(=O)c3ccc4ncccc4c3)C(=O)OC12C (centres unmarked) [12.06] | >64.00 µg/mL | <0.06 µg/mL | 0.25 µg/mL (≈ 0.294 µM) | 1 µg/mL (≈ 1.18 µM) | 2 µg/mL (≈ 2.35 µM) |  |  |  |  | 
CC[C@H]1OC(=O)[C@H](C)[C@@H](OC(=O)N2CCCC2C)[C@H](C)[C@@H](O[C@@H]2O[C@H](C)C[C@H](N(C)C)[C@H]2O)[C@](C)(OC)C[C@@H](C)C(=O)[C@H](C)[C@H]2N(CC3CN(Cc4c[nH]c5ncccc45)C3)C(=O)O[C@]12C (some centres unmarked) [Example 5.03, 3-descladinosyl-11,12-dideoxy-6-O-methyl-12,11-(oxycarbonyl-(1-((1H-pyrrolo[2,3-b]pyridin-3-yl)-methyl)-(azetidin-3-yl)-methyl)-imino)-3-((2-methylpyrrolidine)-1-carbonyl)-erythromycin A] |  |  |  |  |  | 0.5 µg/mL (≈ 0.54 µM) | <0.06 µg/mL | <0.06 µg/mL | <0.06 µg/mL | 2 µg/mL (≈ 2.16 µM)
CC[C@H]1OC(=O)[C@H](C)C(=O)[C@H](C)[C@@H](O[C@@H]2O[C@H](C)C[C@H](N(C)C)[C@H]2O)[C@](C)(OC)C[C@@H](C)C(=O)[C@H](C)[C@H]2N(C3CN(Cc4ccnc5c(C#N)cccc45)C3)C(=O)O[C@]12C [Example 1.95, 3-descladinosyl-11,12-dideoxy-6-O-methyl-3-oxo-12,11-(oxycarbonyl-(1-(quinoline-8-carbonitrile-4-methyl)-azetidin-3-yl)-imino)-erythromycin A] |  |  |  |  |  | 1 µg/mL (≈ 1.2 µM) | <0.063 µg/mL | 1 µg/mL (≈ 1.2 µM) | <0.063 µg/mL | 2 µg/mL (≈ 2.4 µM)
CCC1OC(=O)C(C)C(=O)C(C)C(OC2OC(C)CC(N(C)C)C2O)C(C)(OC)CC(C)C(=O)C(C)C2N(C3CN(Cc4ccc5nccnc5c4)C3)C(=O)OC12C (centres unmarked) [Example 1.28, 3-descladinosyl-11,12-dideoxy-6-O-methyl-3-oxo-12,11-(oxycarbonyl-(1-((quinoxalin-6-yl)-methyl)-azetidin-3-yl)-imino)-erythromycin A] |  |  |  |  |  | 8 µg/mL (≈ 9.88 µM) | <0.06 µg/mL | <0.06 µg/mL | 4 µg/mL (≈ 4.94 µM) | 0.5 µg/mL (≈ 0.617 µM)
CCC1OC(=O)C(C)C(=O)C(C)C(OC2OC(C)CC(N(C)C)C2O)C(C)(OC)CC(C)C(=O)C(C)C2N(CC3CCCN3C(=O)c3cccc4nccnc34)C(=O)OC12C (centres unmarked) [10.33] | >64.00 µg/mL | <0.06 µg/mL | <0.06 µg/mL | 0.25 µg/mL (≈ 0.293 µM) | 2 µg/mL (≈ 2.35 µM) |  |  |  |  | 
CCC1OC(=O)C(C)C(=O)C(C)C(OC2OC(C)CC(N(C)C)C2O)C(C)(OC)CC(C)C(=O)C(C)C2N(C3CCN(Cc4c[nH]c5ncccc45)C3)C(=O)OC12C [Example 9.03, 3-descladinosyl-11,12-dideoxy-6-O-methyl-3-oxo-12,11-(oxycarbonyl-(1-((1H-pyrrolo[2,3-b]pyridin-3-yl)-methyl)-(R)-pyrrolidin-3-yl)-imino)-erythromycin A] | 1 µg/mL (≈ 1.23 µM) | <0.06 µg/mL | <0.06 µg/mL | 0.5 µg/mL (≈ 0.616 µM) | 0.12 µg/mL (≈ 0.148 µM) |  |  |  |  | 
CCC1OC(=O)C(C)C(=O)C(C)C(OC2OC(C)CC(N(C)C)C2O)C(C)(OC)CC(C)C(=O)C(C)C2N(C3CN(Cc4ccnc5ccncc45)C3)C(=O)OC12C (centres unmarked) [Example 1.27, 3-descladinosyl-11,12-dideoxy-6-O-methyl-3-oxo-12,11-(oxycarbonyl-(1-((1,6-naphthyridin-4-yl)-methyl)-azetidin-3-yl)-imino)-erythromycin A] |  |  |  |  |  | 2 µg/mL (≈ 2.47 µM) | <0.06 µg/mL | <0.06 µg/mL | 0.5 µg/mL (≈ 0.617 µM) | 0.5 µg/mL (≈ 0.617 µM)
CCC1OC(=O)C(C)C(=O)C(C)C(OC2OC(C)CC(N(C)C)C2O)C(C)(OC)CC(C)C(=O)C(C)C2N(C3CN(Cc4ccc5nc(C)sc5n4)C3)C(=O)OC12C (centres unmarked) [Example 1.34, (2-methyl-thiazolo[5,4-b]pyridin-5-yl)methyl] |  |  |  |  |  | 32 µg/mL (≈ 38.6 µM) | <0.06 µg/mL | <0.06 µg/mL | 0.12 µg/mL (≈ 0.145 µM) | 0.5 µg/mL (≈ 0.602 µM)
CCC1OC(=O)C(C)C(=O)C(C)C(OC2OC(C)CC(N(C)C)C2O)C(C)(OC)CC(C)C(=O)C(C)C2N(CC3CN(Cc4cccc5cccnc45)C3)C(=O)OC12C.O=CO (centres unmarked) [4.36] |  |  |  |  |  | >64.00 µg/mL | <0.06 µg/mL | 0.25 µg/mL | <0.06 µg/mL | <0.06 µg/mL
CCC1OC(=O)C(C)C(=O)C(C)C(OC2OC(C)CC(N(C)C)C2O)C(C)(OC)CC(C)C(=O)C(C)C2N(C3CN(Cc4cccc(-c5ccccn5)c4)C3)C(=O)OC12C (centres unmarked) [Example 1.43, 3-(pyridin-2-yl)-benzyl] |  |  |  |  |  | 16 µg/mL (≈ 19.2 µM) | <0.06 µg/mL | <0.06 µg/mL | <0.06 µg/mL | 2 µg/mL (≈ 2.4 µM)
CCC1OC(=O)C(C)C(=O)C(C)C(OC2OC(C)CC(N(C)C)C2O)C(C)(OC)CC(C)C(=O)C(C)C2N(C3CN(S(=O)(=O)c4ccc(-n5ccnc5)c(C)c4)C3)C(=O)OC12C (centres unmarked) [Example 3.53, 4-(1H-imidazol-1-yl)-3-methylbenzenesulfonyl] |  |  |  |  |  | 64 µg/mL (≈ 72.1 µM) | <0.06 µg/mL | <0.06 µg/mL | 0.25 µg/mL (≈ 0.282 µM) | 4 µg/mL (≈ 4.5 µM)
CCC1OC(=O)C(C)C(=O)C(C)C(OC2OC(C)CC(N(C)C)C2O)C(C)(OC)CC(C)C(=O)C(C)C2N(C3CN(C(=O)c4ccc(-n5cccn5)cc4)C3)C(=O)OC12C (centres unmarked) [Example 2.13] |  |  |  |  |  | >64.00 µg/mL | <0.06 µg/mL | 2 µg/mL (≈ 2.39 µM) | 0.12 µg/mL (≈ 0.143 µM) | 8 µg/mL (≈ 9.55 µM)
CCC1OC(=O)C(C)C(=O)C(C)C(OC2OC(C)CC(N(C)C)C2O)C(C)(OC)CC(C)C(=O)C(C)C2N(C3CN(C(C)c4ccncc4)C3)C(=O)OC12C (stereo not drawn) [Example 1.22, 1S-(pyridin-4-yl)ethyl] |  |  |  |  |  | >64.00 µg/mL | <0.06 µg/mL | 1 µg/mL (≈ 1.29 µM) | 1 µg/mL (≈ 1.29 µM) | 16 µg/mL (≈ 20.7 µM)
CCC1OC(=O)C(C)C(=O)C(C)C(OC2OC(C)CC(N(C)C)C2O)C(C)(OC)CC(C)C(=O)C(C)C2N(C3CCN(Cc4n[nH]c5ccccc45)C3)C(=O)OC12C [Example 9.09, 3-descladinosyl-11,12-dideoxy-6-O-methyl-3-oxo-12,11-(oxycarbonyl-(1-((1H-indazol-3-yl)-methyl)-(R)-pyrrolidin-3-yl)-imino)-erythromycin A] | 2 µg/mL (≈ 2.46 µM) | <0.06 µg/mL | 0.25 µg/mL (≈ 0.308 µM) | 0.12 µg/mL (≈ 0.148 µM) | 0.12 µg/mL (≈ 0.148 µM) |  |  |  |  | 
